Experiments:
[1] = system: C6 glioma cells; test: Orthotopic C6 glioma rat model, survival and MRI; format: in vivo, Wistar rats; conditions: long-term survivor, D27, D34, D102
Protocol: 10^6 C6 glioma cells were implanted into the right striatum of Wistar rats. Four days after implantation, animals started to receive saline (n=32) or 50 mg/kg of Coenzyme Q10 (n=21), twice a day, i.p. for 45 days. Surviving animals remained in the study until Day 102 (A) Kaplan-Meier survival curve of rats during 45 days of treatment. Over 25% of rats treated with Coenzyme Q10 survived 45 days, considered long-term survival in this model (p<0.01, log rank test). (B) Serial MRI images of a long-term survivor (D27, D34, D102). […] Far right panel is a coronal section of the long-term survivor.
10^6 C6 glioma cells were implanted into the right striatum of Wistar rats. Four days after implantation, animals started to receive saline (n=32) or 50 mg/kg of Coenzyme Q10 (n=21), twice a day, i.p. for 45 days. Surviving animals remained in the study until Day 102.

[2] = system: C6 glioma and NIH3T3 cells; test: Rodent co-culture of C6-GFP glioma and NIH3T3 cells, cell number and Mitosox superoxide by flow cytometry; format: cell-based
Protocol: FIGS. 2A-2F show differential induction of mitochondrial superoxide by Coenzyme Q10 in non-cancer vs. neoplastic cells. (A) Strategy of rodent co-culture experiments using glioma and non-tumor cells. The rodent cell co-culture consisted of fibroblastic NIH3T3 and glioma C6-GFP cells. (B) NIH3T3 and C6 cells were initially seeded in 1:1 ratio. After 72 h or 144 h incubation with Coenzyme Q10 (0 μM, […], 115 μM, 230 μM, […] or 460 μM), the number of C6 or NIH3T3 cells in co-culture is generated by flow-cytometry. (C) Images were taken at 72 hrs post-dosing (0 μM, 230 μM or 460 μM) using a Leica CTR5000. […] Percentage of cells harboring positive or negative level of superoxide from C6 (GFP+) or NIH3T3 (GFP−) population are recorded by flow cytometry (D) and presented as table of summary (E). […]
(§1) We assessed the effects of Coenzyme Q10 on mitochondrial superoxide production in in vitro cocultures of glioma and non-cancerous cells, i.e. rodent C6 glioma, rodent NIH3T3 non-cancerous fibroblast cells, human U251 glioma, and primary human non-cancerous astrocytes.
For the rodent cells, NIH3T3 and C6 cells were initially seeded in a 1:1 ratio. […] Superoxide level was detected by Mitosox staining. The percentage of cells harboring positive or negative levels of superoxide from C6 (GFP+) or NIH3T3 (GFP−) populations were determined by flow cytometry.

[3] = system: U251 glioma cells; test: Human co-culture U251/NHA, imaging and flow cytometry of GFP, superoxide and DAPI; format: cell-based
From the text: (§2) (A) Strategy of human co-culture experiments. In the human cell model, NHA (non-label) and U251 (GFP-labelled) cells are co-cultured in designated cell density. […] (C) Flow cytometric analysis (scatter plot) of GFP and superoxide for U251/NHA cocultures. Cell populations are characterized based by GFP intensity (GFP-negative, GFP-low, and GFP-high). […] (D) Quantification of cell percentages from (C) illustrating the increased number of GFP-low cells with increased dose. (E) Flow cytometric analysis of superoxide and DAPI for NHA-U251/NHA co-cultures treated with 0, 230, or 460 μM Coenzyme Q10.
as §1
(§3) In the human cell model, NHA (non-label) and U251 (GFP-labelled) cells were co-cultured at a designated cell density. Phase and fluorescent images of U251/NHA Co-cultures of U251/NHA cells were treated with 0 or 460 μM Coenzyme Q10 and detected by phase and fluorescent imaging. […] See FIG. 2 B. Cells were also analyzed by flow cytometric analysis (scatter plot) of GFP and superoxide for U251/NHA cocultures. Cell populations were characterized based by GFP intensity (GFP-negative, GFP-low, and GFP-high). […] Quantification of cell percentages illustrated the increased number of GFP-low cells with increased dose.

[4] = system: NHA (normal human astrocytes); test: Human co-culture U251/NHA, flow cytometry of superoxide in non-cancerous cells; format: cell-based; conditions: 0, 230 or 460 μM
From the text: as §2, §1
as §3, with “cocultures.” for “cocultures. Cell populations were characterized based by GFP intensity (GFP-negative, GFP-low, and GFP-high).”

[5] = system: C6 cells; test: Implanted luciferase-labeled C6 glioma rat model with radiotherapy, survival; format: in vivo, Sprague Dawley rats
Protocol: Methodology: 1×10^6 luciferase labeled C6 cells were implanted into the right striatum of Sprague Dawley rats. 4 days post-implantation, 50 rats were randomized into one of four groups:
(i) Saline injection ip bid; (12 rats)
(ii) Coenzyme Q10 50 mg/kg ip bid to continue up to 35 days; (12 rats)
(iii) 12 Gy radiotherapy (RT) to be administered on Day 8 post-implant with saline injection (12 rats); and
(iv) Coenzyme Q10+RT (14 rats).
Tumor-bearing rats were monitored until death or Day 50.

[6] = system: high-grade glioma; conditions: one patient, after 6 weeks in the study
Protocol: The patients in this study were administered a CoQ10-lipid conjugate in which oxidized CoQ10 was incorporated into a mixture of mitochondria compatible lipids, enabling delivery of supraphysiological concentrations of CoQ10 to the mitochondria.
This study was a phase I trial of Coenzyme Q10 to assess for safety and tolerability of Coenzyme Q10 with vitamin K in patients with HGGs that were progressive after a bevacizumab (BEV) containing regimen. […] Therefore, this study used 10 mg vitamin K prophylactically.
Design: Modified toxicity probability interval design (mTPI) enrolling patients sequentially and monitoring through a 28-day DLT period. 1 dose escalation and 2 dose de-escalations allowed.
Key Inclusion Criteria: HGG (GB, Gliosarcoma, AA, AO) sp radiation with TMZ in recurrence after treatment with BEV. Evidence of leptomeningeal spread was allowed. >18 w KPS>60. Normal coagulation labs.
Key Exclusion Criteria: History of spontaneous or tumor related intracerebral hemorrhage. Uncontrolled coagulopathies or use of anti-coagulants.

[7] = system: recurrent high-grade gliomas; conditions: patients with recurrent high-grade gliomas; cited from earlier work

Row | Compound | tumor size over time on serial MRI after treatment was withdrawn [1] | dosage of peak effect of differences in superoxide levels and cell growth ([2]; C6/NIH3T3 co-culture) | induction of mitochondrial superoxide versus non-neoplastic cells ([2]; C6 and U251 cells exposed to Coenzyme Q10) | DAPI levels ([3]; 0, 230 or 460 μM) | superoxide values in GFP-low and GFP-high cells ([3]; 0, 230 or 460 μM) | glioma cell levels by phase and fluorescent imaging ([3]; 460 μM, U251/NHA co-culture) | superoxide level of U251 glioma cells compared to human astrocytes upon treatment ([3]; basal difference 1.5-fold) | percentage of GFP-low relative to GFP-high cells ([3]; with increasing dose, flow cytometry) | superoxide values in GFP-negative (NHA) cells [4] | median survival ([5]; Coenzyme Q10 50 mg/kg ip bid up to 35 days, 12 Gy RT on Day 8, monitored to Day 50, p<0.001) | Long Term Survivors (%) ([5]; survived for 45 days) | glucose uptake by FDG-PET in the area of prior surgery [6] | response rates [7]
1 | COC1=C(OC)C(=O)C(C/C=C(\C)CC/C=C(\C)CC/C=C(\C)CC/C=C(\C)CC/C=C(\C)CC/C=C(\C)CC/C=C(\C)CC/C=C(\C)CC/C=C(\C)CCC=C(C)C)=C(C)C1=O [Coenzyme Q10] | continued shrinkage of the tumor over time | 230 | significantly more induction of mitochondrial superoxide than non-neoplastic cells | only significantly elevated in GFP-low cells | increase in superoxide values | decreased glioma cell levels with a relative sparing of NHA cells | over 4 fold | increased percentage of GFP-low relative to GFP-high cells | insignificant changes | 19 days | 5/12 (42%) | decreased glucose uptake | –
2 | Bevacizumab: a monoclonal antibody against vascular endothelial growth factor (VEGF) | – | – | – | – | – | – | – | – | – | – | – | – | 32-62%

— patent US20210322339A1, “COMBINATION THERAPY OF COENZYME Q10 AND RADIATION FOR TREATMENT OF GLIOMA” (Berg LLC, priority 2019, published 2021)
